Results reported in patent publication US20240067672A1, “FLAVONE DERIVATIVE FOR TREATING TUMORS AND USE THEREOF” (SICHUAN FUSHENGYUAN TECHNOLOGY CO., LTD, priority 2019, published 2024).
In brackets after ≈: the same amount, converted by molar mass. Where two headings read alike, the source gives them in different places.

Key:
[1] = system: HepG2 hepatoma cells; assay: Anti-tumor activity in vitro, MTT method, HepG2; assay type: cell-based, human; conditions: for IC50: MTT; for IC50 compared with Icaritin, HepG2 72 h: HepG2, 72 h after administration
Method: (§1) The effects of Icaritin and its derivatives on the activities of HepG2 and SMMC7721 hepatoma cells were investigated by a MTT method. […] After reaction for 48, 7 2 h, each well was added with 20 μL 5 mg/mL, of MTT solution, and incubated in a cell incubator for 3-4 h. Then the liquid in the well plates was sucked to discard. Each well was added with 150 μL of dimethyl sulfoxide (DMSO), and shaken on an enzyme-labeled instrument for 30 s at ambient temperature so that the Formazan crystals were dissolved sufficiently. The absorbance value A of each well at 570 nm was detected by the enzyme-labeled instrument, and the experiment was repeated for 3 times.

[2] = Determination of solubility (HPLC); assay type: physicochemical; conditions: for solubility: 37 °C, thermodynamic from solid
Method: About 1.325 mg of Icaritin and the synthesized derivative were weighed and dissolved in 1.5 mL methanol respectively, then diluted with methanol into solutions of 10, 20, 50, 100, 150, 200, 500 μg/mL, and filtered over an organic-system filter head of 0.45 μm into sample bottles, obtaining the samples for test. Four parts of Icaritin and the synthesized derivative were weighed respectively, 1.00 mg for each part, and placed into 1.5 mL EP tubes, and 1 mL of water, normal saline, PBS, and 0.1% Tween 80 were respectively added thereto. The obtained solutions were ultrasonicated for 1 h, placed in a water bath at 37° C. overnight, and centrifuged at 10000 r/min for 3 min to collect supernatants. The supernatants were taken into sample bottles and detected by HPLC. The experiments were conducted in parallel for three times. The detection of HPLC is conducted under conditions of a chromatographic column of waters Symmetry C18, a mobile phase of a solution of methanol and water with a ratio of 80:20, a flow rate of 1.0 mL/min, a column temperature of 30° C., a detection wavelength of 210 nm, a run time of 30 min, and a sample load of 20 μL.

[3] = system: SMMC7721 hepatoma cells; assay: Anti-tumor activity in vitro, MTT method, SMMC7721; assay type: cell-based, human; conditions: for IC50: MTT; for IC50 compared with Icaritin, SMMC7721 72 h: SMMC7721, 72 h after administration
Method: as §1

[4] = Homo sapiens, HepG2, 48 h, read-out: IC50 HepG2 48 h
[5] = Homo sapiens, HepG2, 72 h, read-out: IC50 HepG2 72 h
[6] = Homo sapiens, SMMC-7721, SMMC7721, 48 h, read-out: IC50 SMMC7721 48 h
[7] = Homo sapiens, SMMC-7721, SMMC7721, 72 h, read-out: IC50 SMMC7721 72 h

| IC50 ([1]; HepG2, 48 h, read-out: IC50 HepG2 48 h) [µM] | IC50 ([1]; HepG2, 72 h, read-out: IC50 HepG2 72 h) [µM] | Solubility, 0.1% Tween 80 [2] | Solubility, Normal Saline [2] | Solubility, PBS [2] | Solubility, Water [2] | IC50 ([3]; SMMC7721, 48 h, read-out: IC50 SMMC7721 48 h) [µM] | IC50 ([3]; SMMC7721, 72 h, read-out: IC50 SMMC7721 72 h) [µM] | IC50 compared with Icaritin, SMMC7721 72 h [3] | IC50 compared with Icaritin, HepG2 72 h [1] | IC50 [1, 4] [µM] | IC50 [1, 5] [µM] | IC50 [3, 6] [µM] | IC50 [3, 7] [µM] | IC50 compared with Icaritin, 48 and 72 h ([1]; HepG2 and SMMC7721, 48 and 72 h) | solubility compared with that of the bulk drug (Icaritin) [2] | solubility ([2]; aqueous with cosolvent or surfactant or cyclodextrin) [µg/mL] | solubility ([2]; saline or isotonic) [µg/mL] | solubility ([2]; water) [µg/mL] | SMILES |
| --- | --- | --- | --- | --- | --- | --- | --- | --- | --- | --- | --- | --- | --- | --- | --- | --- | --- | --- | --- |
| > 100 | > 100 | 6.123 ± 0.931 µg/mL (≈ 7.14 µM) | 5.036 ± 1.031 µg/mL (≈ 5.87 µM) | 5.031 ± 0.901 µg/mL (≈ 5.86 µM) | 5.474 ± 0.394 µg/mL (≈ 6.38 µM) | > 100 | 8.68 ± 0.52 | less than that of Icaritin | – | – | – | – | – | – | – | – | – | – | COc1ccc(-c2oc3c(CC=C(C)C)c(O)cc(O)c3c(=O)c2OC(=O)CCC(=O)OCCCOCc2cn(CCOCCOC3OC(CO)C(O)C(O)C3O)nn2)cc1 (stereo not shown) [Compound 97] |
| – | – | Insoluble | Insoluble | Insoluble | Insoluble | – | – | less than that of Icaritin | less than that of Icaritin | > 100 | 9.02 ± 0.27 | > 100 | 12.9 ± 1.03 | – | – | – | – | – | COc1ccc(-c2oc3c(CC=C(C)C)c(O)cc(O)c3c(=O)c2OC(=O)CCC(=O)OCCN(CCOCc2cn(CCO[C@@H]3O[C@H](CO)[C@@H](O)[C@H](O)[C@H]3O)nn2)c2ccccc2)cc1 [Compound 104] |
| – | – | – | – | Insoluble | – | – | – | less than that of Icaritin | less than that of Icaritin | 15.1 ± 1.32 | 7.69 ± 0.04 | > 100 | 9.57 ± 1.2 | less than those of Icaritin | improved effectively | 23.4 ± 1.12 (≈ 24.3 µM) | 23.9 ± 0.982 (≈ 24.9 µM) | 23.6 ± 1.23 (≈ 24.5 µM) | COc1ccc(-c2oc3c(CC=C(C)C)c(O)cc(O)c3c(=O)c2OC(=O)CCC(=O)OCCN(CCOCc2cn(CCOCCO[C@H]3O[C@@H](CO)[C@H](O)[C@@H](O)[C@@H]3O)nn2)c2ccccc2)cc1 [Compound 105] |
